According to patent US20220071978A1, “CANCER TREATMENT PHARMACEUTICAL COMPOSITION CONTAINING CDK INHIBITOR” (SUMITOMO DAINIPPON PHARMA CO., LTD., priority 2018, published 2022):

Experiments:
AILNCaP15 cell line = assay: Cell proliferation suppression test (crystal violet staining); type: cell-based
Procedure: (§1) 5×10^3 cells of the LNCaP cell line, 4×10^4 cells of the AILNCaP14 cell line, and 6×10^4 cells of the AILNCaP15 cell line were each seeded on a 24-well plate to which 1 mL/well of medium was dispensed. […] After culturing each cell line for an additional two weeks, the status of cell proliferation was measured by cell staining (Bommi-Reddy et al. Proc Natl Acad Sci USA. 105: 16484-16489 (2008)) using crystal violet.
(§2) The final concentrations of alvocidib were set to be 0.125, 0.25, 0.5, and 1.0 uM.

AILNCaP14 cell line = assay: as above; type: cell-based
Procedure: as §1, §2

[1] = test system: androgen receptor (AR) phosphorylation in AILNCaP14 cell line; assay: AR phosphorylation suppression test by immunoblotting; type: cell-based; details: 0.25 uM, 1 to 4 days
Procedure: (§3) After the culturing, each of 1×10^6 cells were washed with ice cooled PBS, and then treated with cell lysis buffer containing 8 M of urea, 20 mM of Tris hydrochloride (pH 7.4), 1 mM of EDTA, and protease inhibitor (Nacalai tesque, Cat no. 03969) and phosphatase inhibitor (Nacalai tesque, Cat no. 07575-51)—added 1.0% Triton X. The cell lysate was then subjected to high speed centrifugation (21,500 G) for 20 minutes at 4° C. The total amount of cell protein was quantified using a protein quantification reagent (Thermo Fisher Scientific, Cat no. 23227).
As a positive control, JQ1 (Cayman Chemical) was used.

[2] = test system: androgen receptor (AR) phosphorylation in AILNCaP15 cell line; assay: as above; type: cell-based; details: 0.25 uM, 1 to 4 days
Procedure: as §3

[3] = test system: AR nuclear translocation in AILNCaP14 cell line; assay: AR nuclear translocation suppression test using immunofluorescent staining; type: cell-based; details: 0.25 μM, 4 days, vs DMSO control
Procedure: 1×10^5 cells of the […]14 cell line were seeded on a 48-well plate to which 0.5 mL/well of medium was dispensed. After 3 days of culture under the conditions of 5% CO2 at 37° C., a DMSO solution of alvocidib was diluted with a medium so that the final concentration of alvocidib would be 0.25 μM and added to each well (final volume of 1.0 mL). As a control, alvocidib-free DMSO was similarly diluted and added. After culturing for 4 days, the cells were gently washed once with PBS, and immobilized by allowing 4% paraformaldehyde phosphate buffer to act on the cells for 15 minutes. After washing the cells gently twice with PBS, the cells were incubated for 15 minutes in a 4% PBST solution. The cells were further incubated for 15 minutes in a blocking reagent (DS Pharma Biomedical, Cat no. UK-B80), and the cells were then incubated overnight at 4° C. after adding an anti-AR antibody (Santa Cruz Biotechnology Inc., Cat no. sc-816). After washing the cells gently twice with PBS, the cells were incubated for 45 minutes at room temperature after adding a secondary antibody for immunofluorescent staining (Thermo Fisher Scientific, Cat no A-21206). After washing the cells gently twice with PBS, the cells were incubated for 10 minutes after adding DAPI (Nacalai tesque, Cat no. 11034-56). After washing the cells twice for 10 minutes with 1% PBS, signals were measured with a fluorescence microscope.

[4] = test system: AILNCaP14 cell derived subcutaneous xenograft; assay: Tumor proliferation suppression test using a subcutaneous xenograft mouse model; type: in vivo; details: castrated NOD-SCID mice; 3 mg/kg intraperitoneally, three times every two days; vs saline negative control; p value=0.0497
Procedure: 2×10^6 […] 14 cells were subjected to suspension culture for 4 days using a PrimeSurface® petri dish 90 mm (product code: MS-9090X) in a phenol red free RPMI 1640 medium containing activated carbon-treated 10% fetal bovine serum (csFBS). The cultured cells that were collected, mixed with 350 uL of Matrigel (Corning® Matrigel® Basement Membrane Matrix; catalog number: 356237), and then divided into 3 equal portions were transplanted subcutaneously into three sites on NOD-SCID mice (male, 8 mice, 6 to 8 weeks old) 7 days after castration. […] The tumor volume after three days (day 7) from the third administration was measured, and the ratio of increase in tumor volume was computed in accordance with the following equation. Ratio of increase in tumor volume=tumor volume on day 7/tumor volume on day 0 As a negative control group, the same test was conducted using saline in place of an agent administered solution, and the ratio of increase in tumor volume was computed.

[5] = Body weight in the xenograft mouse test; type: in vivo; details: NOD-SCID mice; 3 mg/kg intraperitoneally, three times every two days
Procedure: 2×10^6 […]14 cells were subjected to suspension culture for 4 days using a PrimeSurface® petri dish 90 mm (product code: MS-9090X) in a phenol red free RPMI 1640 medium containing activated carbon-treated 10% fetal bovine serum (csFBS). The cultured cells that were collected, mixed with 350 uL of Matrigel (Corning® Matrigel® Basement Membrane Matrix; catalog number: 356237), and then divided into 3 equal portions were transplanted subcutaneously into three sites on NOD-SCID mice (male, 8 mice, 6 to 8 weeks old) 7 days after castration. After the subcutaneous transplantation, the mice were continuously raised, and an aqueous saline solution of alvocidib hydrochloride (3 mg/kg) was administered intraperitoneally to the mice for a total of three times at an interval of once every two days from the point (day 0) where the volume of tumor formed subcutaneously reached 25 mm^3 or greater and 100 mm^3 or less at one or two of the tumor transplantation sites.

LNCaP cell line = assay: Cell proliferation suppression test (crystal violet staining); type: cell-based; details: final concentration of 0.625 uM or greater, two weeks culture
Procedure: as §1

[6] = 336 h, two weeks culture, crystal violet
[7] = final concentration of 0.25 uM or greater
[8] = final concentration of 5 uM, compared to LNCaP cell line

## CN1CC[C@H](c2c(O)cc(O)c3c(=O)cc(-c4ccccc4Cl)oc23)[C@H](O)C1 [alvocidib, 2-(2-chlorophenyl)-5,7-dihydroxy-8-[(3S,4R)-3-hydroxy-1-methylpiperidin-4-yl]-4H-1-benzopyran-4-one]
AILNCaP15 cell line; [6]
  IC50: 0.125 to 0.25 µM
AILNCaP15 cell line; [7]
  effect of suppressing cell proliferation: very potent effect of suppressing cell proliferation
AILNCaP14 cell line; [6]
  IC50: 0.125 to 0.25 µM
AILNCaP14 cell line; [7]
  effect of suppressing cell proliferation: very potent effect of suppressing cell proliferation
[1]
  phosphorylation of serine 81 of AR: suppressed over time
  phosphorylation of serine 210 or serine 213 of AR: suppressed over time
[2]
  phosphorylation of serine 81 of AR: suppressed over time
  phosphorylation of serine 210 or serine 213 of AR: suppressed over time
[3]
  AR nuclear translocation: suppressed
[4]
  ratio of increase in tumor volume (day 7/day 0): decreased
[5]
  decrease in the body weight of mice: not observed

## CNC(=O)c1ccc(N2C(=S)N(c3ccc(C#N)c(C(F)(F)F)c3)C(=O)C2(C)C)cc1F [enzalutamide]
AILNCaP15 cell line; [8]
  suppression of cell proliferation: significant weaker suppression of cell proliferation
AILNCaP14 cell line; [8]
  suppression of cell proliferation: significant weaker suppression of cell proliferation
LNCaP cell line
  suppression of cell proliferation: clear suppression of cell proliferation
